# Key:
# [1] = [124I]-PU-H71 PET in cancer patients, tumor exposure to PU-H71; type: in vivo, human
# [2] = tested on: Raf-1, Akt; assay: pharmacodynamic analysis of MDA-MB-468 tumors (Western blot); type: in vivo, mice; conditions: Mus musculus, MDA-MB-468, 24 h
# [3] = tested on: MDA-MB-468 cells; assay: apoptosis of MDA-MB-468 cells (Ethidium Bromide/Acridine Orange); type: cell-based, human; conditions: 48 h
# From the text: As noted in FIG. 40B, several tumors are more sensitive to HSP90 inhibition than predicted from the preliminary data generated on cell lines.
# [4] = tested on: Raf-1, Akt; assay: onco-client protein degradation in MDA-MB-468 cells (Western blot); type: cell-based; conditions: Homo sapiens, in vitro, 24 h
# [5] = tested on: MDA-MB-468 tumors; assay: efficacy study in MDA-MB-468 xenografted tumors; type: in vivo, mice; conditions: 75 mg/kg, 1× week
# Protocol: Mice (n=5) bearing MDA-MB-468 tumors reaching a volume of 100-150 mm^3 were treated i.p. (i.p.) using different doses and schedules, as indicated. Tumor volume was determined by measurement with Vernier calipers, and tumor volume was calculated as the product of its length×width^2×0.4. Tumor volume was expressed on indicated days as the median tumor volume ±SD indicated for groups of mice. Percent (%) tumor growth inhibition values were measured on the final day of study for drug-treated compared with vehicle treated mice and are calculated as 100×{1−[(TreatedFinal day−TreatedDay 1)/(ControlFinal day−ControlDay 1)]}. Tumor regression values were determined by calculating the ratio of median tumor volumes at the time when treatment was initiated to median tumor volume on the final day of study for a given treatment group. Percent (%) tumor regression is 100×[1−(TreatedFinal day/TreatedDay 1)].
# [6] = tested on: caspase-3,7; assay: caspase 3,7 activation assay in AML cell lines; type: cell-based; conditions: 24 h
# Protocol: A ten-fold, in MOLM-13 and M0-91, and two-fold, in Kasumi-1 and SKNO-1, increase in caspase-3,7 activation was observed as early as 24 h. Essentially no live cells were detected for the M0-91 cell line after 48 h of HSP90 inhibitor treatment. In the most sensitive cells, MOLM-13 and M0-91, apoptosis was associated with downregulation of the anti-apoptotic molecule Bcl-xL.
# Cells were plated and treated as described in the growth inhibition assay section. Following a 24 h or 48 h exposure of cells to Hsp90 inhibitors, 100 μL buffer containing 10 mM Hepes, pH 7.5, 2 mM EDTA, 0.1% CHAPS, 0.1 mg/mL PMSF, Complete Protease Inhibitor mix (#1697498; Roche), and the caspase substrate Z-DEVD-R110 (#R22120; Molecular Probes) at 25 μM was added to each well. Plates were placed on an orbital shaker to promote cell lysis and reaction. The fluorescence signal of each well was measured in an Analyst GT (Molecular Dev ices) microplate reader (excitation 485 nm; emission at 530 nm). The percentage increase in caspase-3,7 activity was calculated by comparison of the fluorescence reading obtained from treated versus control cells. All experimental data were analyzed using SOFTmax Pro 4.3.1 and plotted using Prism 4.0 (Graphpad Software Inc., San Diego, Calif.).
# [7] = tested on: breast cancer tumor specimens; assay: ex vivo sensitivity of breast cancer fresh tissue sections to PU-H71; type: cell-based, human; conditions: TNBC resistant (PT#14)
# From the text: From preliminary analyses we have learned that fresh tissue slicing provides a quick and more efficient ex vivo method for HSP90 inhibition evaluation than primary cell isolation. In addition, it preserves the cancer cells in the endogenous environment of the surrounding tissue. This is important since the interaction between stromal cells and tumor cells is known to play a major role in cancer growth and progression. In this method, the tissue (i.e. lesion) is placed in a plastic mold and embedded in 6% agarose. The agarose-embedded tissue is then mounted on the stage of the Vibratome that is submersed in a chilled reservoir (for tissue preservation) containing MEM with 1% penicillin/streptomycin. The tissue is then sliced using metal blades producing serial sections of the lesion that are 200 μm thick. Each section (minus the surrounding agarose-embedding media) is immediately placed in a 24-well tissue culture plate containing MEM with 1% penicillin/streptomycin. From a 5 mm×5 mm piece of tissue approximately 25 sections are produced. This allows for replicate analyses of tissue sections treated with a minimum of 4 doses of the HSP90 inhibitor and one with vehicle only. Replicates can be assayed by both IHC as well as viability assays (automatic plate reader or cytospin preparation) once tissue section undergoes enzymatic dissociation by brief exposure to dispase. […]
# [8] = PU-H71 tumor concentrations in MDA-MB-468 tumor-bearing mice (PET-predicted, simulated, LC-MS/MS); conditions: 75 mg/kg 1× week
# [9] = target: 359 kinases; assay: scanMAX kinase screen (Ambit); type: binding; conditions: 10 μM
# [10] = tested on: p-AKT, p-STAT5; assay: pharmacodynamic study in M0-91 tumors xenografted in mice; type: in vivo
# Protocol: We next analyzed the pharmacodynamic effects of HSP90 inhibition in both HEL and M0-91 tumors xenografted in mice. Unlike the cultured cells, the use of the in vivo model allows real-time monitoring of HSP90-dependent pathways inhibition.
# Four- to 6-week-old nu/nu athymic female mice were obtained from Taconic Farms. Experiments were carried out under an Institutional Animal Care and Use Committee-approved protocol, and institutional guidelines for the proper and humane use of animals in research were followed. HEL and M0-91 cells were subcutaneously implanted in the right flank of mice using a 20-gauge needle and allowed to grow. […] For this assay, tumors were allowed to reach 6-8 mm in diameter before treatment. […] Tumors were homogenized and proteins analyzed by western blot as described above.
# [11] = in vivo; conditions: mouse
# [12] = mouse, in vivo
# [13] = tested on: HSP90; assay: 131I-PU-H71 saturation binding in intact cancer cells; type: cell-based
# From the text: The solutions were shaken in an orbital shaker and after 1 hr the cells were isolated and washed with ice cold Tris-buffered saline using a Brandel cell harvester. […] To calculate the percentage of HSP90, cellular HSP90 expression was quantified by using standard curves created of recombinant HSP90 purified from HeLa cells (Stressgen#ADI-SPP-770).
compound,measurement,setting,value
CC(C)NCCCn1c(Sc2cc3c(cc2I)OCO3)nc2c(N)ncnc21 [PU-H71],tumor AUC0-336h,[1]; 10 mg/m^2 once a week for two weeks,54 μM-h
same,tumor exposure,"[1]; left lung, 80 mg/m2 2× week",above 760 uM-h
same,EC50,"[2]; read-out: EC50 Akt, tumor concentration by PET vs pharmacodynamic effect",90 ± 80 nM
same,EC50,"[2]; read-out: EC50 Raf-1, tumor concentration by PET vs pharmacodynamic effect",240 ± 30 nM
same,cells undergoing apoptosis,[3]; 0.5 μM,about 50%
same,cells undergoing apoptosis,[3]; about 5 μM,about 100%
same,EC50,"[4]; read-out: EC50 Akt, onco-client protein degradation",150 ± 20 nM
same,EC50,"[4]; read-out: EC50 Raf-1, onco-client protein degradation",130 ± 20 nM
same,anti-tumor effect,[5],significant tumor growth inhibition
same,"increase in caspase-3,7 activation",[6]; Kasumi-1 and SKNO-1,two-fold
same,"increase in caspase-3,7 activation",[6]; MOLM-13 and M0-91,ten-fold
same,apoptosis,[7],no apoptosis noted at any of the tested concentrations
same,actual tumor concentration by LC-MS/MS,[8]; 24 h after last dose,5.53±0.26
same,actual tumor concentration by LC-MS/MS,[8]; 96 h after last dose,3.09±1.40
same,kinase hits,[9],Only SNARK (NUAK family SNF1-like kinase 2)
same,duration of apoptosis after one dose,[10],96 h
same,concentration at 24 h,"[11]; in vivo, 5 mg/kg",430 nM
same,concentration at 24 h,"[11]; tumor, 5 mg/kg",370 nM
same,concentration at 24 h,"[11]; tumor, 25 mg/kg",1830 nM
same,concentration at 24 h,"[11]; tumor, 50 mg/kg",3670 nM
same,concentration at 48 h,"[11]; tumor, 75 mg/kg",3500 ± 270 nM
same,concentration at 96 h,"[11]; tumor, 75 mg/kg",1290 ± 290 nM
same,concentration at 120 h,"[11]; tumor, 75 mg/kg",690 ± 250 nM
same,AUC tumor relative to AUC blood,[12],15 fold
same,area under the blood time-activity concentration curve,[12],0.78 % ID/g-h
same,area under the tumor time-activity concentration curve,[12],11.4 % ID/g-h
same,fraction of total cellular HSP90 bound,[13]; K562 and other established t(9;22)+ CML cell lines,10.3-23%
same,fraction of total cellular HSP90 bound,[13]; MDA-MB-468 cells,approximately 30%
